# From patent US12486302B2, “Somatostatin receptor antagonist compounds and methods of using the same” (CDRD VENTURES INC., priority 2016, dated 2025)
# *1 amine or outer side, *2 acyl side, *3 side chain or, on linkers, in order; H or OH if unused. Where a SMILES comes first, the peptide text is derived from it. Bridges are numbered along the chain shown (N, C = ends). Side-chain parts run from the residue outwards. [ ]: non-standard residue; d: D form. The star is where a group is joined. ξ: configuration not given here. dPhe(4-CONH2) = NC(=O)c1ccc(C[C@@H](N)C(=O)O)cc1; dPhe(4-NH2) = Nc1ccc(C[C@@H](N)C(=O)O)cc1; Phe(4-Cl) = N[C@@H](Cc1ccc(Cl)cc1)C(=O)O; Lys(Me2) = CN(C)CCCC[C@H](N)C(=O)O; NH(4-MeO-phenyl) = COc1ccc(N*)cc1; dCit = NC(=O)NCCC[C@@H](N)C(=O)O; Lys(Me) = CNCCCC[C@H](N)C(=O)O; Tle = CC(C)(C)[C@H](N)C(=O)O; Nicotinoyl = O=C(c1cccnc1)*; ξY = NC(Cc1ccc(O)cc1)C(=O)O; ξF = NC(Cc1ccccc1)C(=O)O; CO = O=C([*:1])[*:2]; Bz = O=C(c1ccccc1)*; NHPh = c1ccc(N*)cc1
# Biological target: somatostatin type 2 (SSTR2) receptors (Homo sapiens, UniProt P30874)
# Assay: PathHunter β-Arrestin assay, antagonist mode, SSTR2
# Type: cell-based
# Conditions: agonist challenge at EC80
# Experimental: The PathHunter® β-Arrestin assay monitors the activation of a GPCR in a homogenous, non-imaging assay format using a technology developed by DiscoveRx called Enzyme Fragment Complementation (EFC) with β-galactosidase (β-Gal) as the functional reporter. […] EA is fused to β-Arrestin and […] is fused to the GPCR of interest. When the GPCR is activated and β-Arrestin is recruited to the receptor, ED and EA complementation occurs, restoring β-Gal activity which is measured using chemiluminescent PathHunter® Detection Reagents. For antagonist determination, cells were pre-incubated with the compounds followed by agonist challenge at the EC80 concentration. Data was normalized to the maximal and minimal response observed in the presence of EC80 ligand and vehicle. Compound activity was analyzed using CBIS data analysis suite ChemInnovation, CA). Percentage inhibition was calculated using the following formula: % Inhibition=100%×(1−(mean signal of test sample-mean signal of vehicle control)/(mean signal of EC80 control-mean signal of vehicle control)). Percentage inhibition was calculated at 10 concentrations in steps on a Log 3 scale ranging from […] to 5e-5 μM. The results were plotted for IC50 calculation.
# Chain of somatostatin type 2 (SSTR2) receptors (P30874 whole entry): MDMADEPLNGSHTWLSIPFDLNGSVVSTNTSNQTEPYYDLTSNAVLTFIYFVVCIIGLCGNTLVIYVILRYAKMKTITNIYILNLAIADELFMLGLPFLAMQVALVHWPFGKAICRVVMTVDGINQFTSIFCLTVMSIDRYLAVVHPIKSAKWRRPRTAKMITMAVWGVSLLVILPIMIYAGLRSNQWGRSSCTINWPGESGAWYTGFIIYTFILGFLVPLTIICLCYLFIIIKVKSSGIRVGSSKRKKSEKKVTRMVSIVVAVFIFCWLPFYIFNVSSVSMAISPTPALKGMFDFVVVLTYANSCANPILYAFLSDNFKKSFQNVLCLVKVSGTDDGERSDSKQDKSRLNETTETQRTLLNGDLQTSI
smiles,measurement,value
"C[C@@H](O)[C@@H]1NC(=O)[C@H](CCCCN)NC(=O)[C@@H](Cc2ccc(C(N)=O)cc2)NC(=O)[C@H](Cc2ccc(O)cc2)NC(=O)[C@@H](NC(=O)[C@@H](N)Cc2ccc(Cl)cc2)CSSC[C@@H](C(=O)NC(Cc2ccc(O)cc2)C(N)=O)NC1=O (stereo in doubt) [Compound 39, H-Cpa-cyclo[Cys- Tyr-D-(4- carbamoyl)Phe- Lys-Thr-Cys]- DTyr-NH2]",IC50,> 1000 nM
"CC(O)[C@@H]1NC(=O)[C@H](CCCCN)NC(=O)[C@@H](Cc2ccc(C(N)=O)cc2)NC(=O)[C@H](Cc2ccc(O)cc2)NC(=O)[C@H](NC(=O)[C@@H](N)Cc2ccc(Cl)cc2)CNC(=O)SC[C@@H](C(=O)N[C@H](Cc2ccc(O)cc2)C(N)=O)NC1=O (stereo in doubt) [Compound 61, H-Cpa-cyclo[Dap- Tyr-DPhe (4-CONH2)- Lys-Thr-Cys]- DTyr-NH2]",IC50,> 1000 nM
C[C@@H](O)[C@@H]1NC(=O)[C@H](CCCCN)NC(=O)[C@@H](Cc2ccc(C(N)=O)cc2)NC(=O)[C@H](Cc2ccc(O)cc2)NC(=O)[C@@H](NC(=O)[C@@H](N)Cc2ccc(Cl)cc2)CC=CC[C@@H](C(=O)N[C@H](Cc2ccc(O)cc2)C(N)=O)NC1=O (stereo in doubt) [Compound 68],IC50,> 1000 nM
"CNCCCC[C@@H]1NC(=O)[C@@H](Cc2ccc(NC(=O)Nc3ccccc3)cc2)NC(=O)[C@H](Cc2ccc(O)cc2)NC(=O)[C@H](NC(=O)[C@@H](N)Cc2ccc(Cl)cc2)CSSC[C@@H](C(=O)NC(Cc2ccc(O)cc2)C(N)=O)NC(=O)[C@H]([C@@H](C)O)NC1=O (stereo partly drawn) [Compound 25, H-Cpa-cyclo[D-Cys-Tyr-D-Phe(4-phenylureido)-Lys(N^ε-Me)-Thr-Cys]-D-Tyr-NH2] (H-[Phe(4-Cl)][dC]Y[dPhe(4-NH2)]([CO-NHPh])[Lys(Me)]TC[ξY]-NH2; disulfide 2-7)",IC50,2.32 nM
"CC(=O)NCCCC[C@@H]1NC(=O)[C@@H](Cc2ccc(C(N)=O)cc2)NC(=O)[C@H](Cc2ccc(O)cc2)NC(=O)[C@H](NC(=O)[C@@H](N)Cc2ccc(Cl)cc2)CSSC[C@@H](C(=O)NC(Cc2ccc(O)cc2)C(N)=O)NC(=O)[C@H]([C@@H](C)O)NC1=O (stereo partly drawn) [Compound 26, H-Cpa-cyclo[DCys- Tyr-D-(4- carbamoyl)Phe-(N- Acetyl)Lys-Thr-Cys]- DTyr-NH2] (H-[Phe(4-Cl)][dC]Y[dPhe(4-CONH2)]K(Ac)TC[ξY]-NH2; disulfide 2-7)",IC50,> 1000 nM
"C[C@@H](O)[C@@H]1NC(=O)[C@H](CCCCN)NC(=O)[C@@H](Cc2ccc(NC(=O)c3ccccc3)cc2)NC(=O)[C@H](Cc2ccc(O)cc2)NC(=O)[C@H](NC(=O)[C@@H](N)Cc2ccc(Cl)cc2)CSSC[C@@H](C(=O)NC(Cc2ccc(O)cc2)C(N)=O)NC1=O (stereo partly drawn) [Compound 27, H-Cpa-cyclo[DCys- Tyr-D-(4- Benzamidophenyl) Phe-Lys-Thr- Cys]-DTyr-NH2] (H-[Phe(4-Cl)][dC]Y[dPhe(4-NH2)](Bz)KTC[ξY]-NH2; disulfide 2-7)",IC50,34.7 nM
"COc1ccc(NC(=O)Nc2ccc(C[C@H]3NC(=O)[C@H](Cc4ccc(O)cc4)NC(=O)[C@H](NC(=O)[C@@H](N)Cc4ccc(Cl)cc4)CSSC[C@@H](C(=O)N[C@H](Cc4ccc(O)cc4)C(N)=O)NC(=O)[C@H]([C@@H](C)O)NC(=O)[C@H](CCCCN)NC3=O)cc2)cc1 [Compound 28, H-Cpa-cyclo[DCys- Tyr-D-(4-(4- methoxyphenyl) ureido) Phe-Lys-Thr-Cys]- DTyr-NH2] (H-[Phe(4-Cl)][dC]Y[dPhe(4-NH2)]([CO-NH(4-MeO-phenyl)])KTC[dY]-NH2; disulfide 2-7)",IC50,104 nM
"C[C@@H](O)[C@@H]1NC(=O)[C@H](CCCNC(=N)N)NC(=O)[C@@H](Cc2ccc(C(N)=O)cc2)NC(=O)[C@H](Cc2ccc(O)cc2)NC(=O)[C@H](NC(=O)[C@@H](N)Cc2ccc(Cl)cc2)CSSC[C@@H](C(=O)NC(Cc2ccc(O)cc2)C(N)=O)NC1=O (stereo partly drawn) [Compound 29, H-Cpa-cyclo[DCys- Tyr-D-(4- carbamoyl)Phe-Arg- Thr-Cys]-DTyr-NH2] (H-[Phe(4-Cl)][dC]Y[dPhe(4-CONH2)]RTC[ξY]-NH2; disulfide 2-7)",IC50,398 nM
"CNCCCC[C@@H]1NC(=O)[C@@H](CCCCNC(=O)c2cccnc2)NC(=O)[C@H](Cc2ccc(O)cc2)NC(=O)[C@H](NC(=O)[C@@H](N)Cc2ccc(Cl)cc2)CSSC[C@@H](C(=O)NC(Cc2ccc(O)cc2)C(N)=O)NC(=O)[C@H]([C@@H](C)O)NC1=O (stereo partly drawn) [Compound 30, H-Cpa-cyclo[D-Cys-Tyr-D-Lys(N^ε-nicotinoyl)-Lys(N^ε-Me)-Thr-Cys]-D-Tyr-NH2] (H-[Phe(4-Cl)][dC]Y[dK](Nicotinoyl)[Lys(Me)]TC[ξY]-NH2; disulfide 2-7)",IC50,177 nM
"CNCCCC[C@@H]1NC(=O)[C@@H](CCCNC(N)=O)NC(=O)[C@H](Cc2ccc(O)cc2)NC(=O)[C@H](NC(=O)[C@@H](N)Cc2ccc(Cl)cc2)CSSC[C@@H](C(=O)N[C@H](Cc2ccc(O)cc2)C(N)=O)NC(=O)[C@H]([C@@H](C)O)NC1=O [Compound 31, H-Cpa-cyclo[DCys- Tyr-D-Cit- (N—Me)Lys-Thr- Cys]-DTyr-NH2] (H-[Phe(4-Cl)][dC]Y[dCit][Lys(Me)]TC[dY]-NH2; disulfide 2-7)",IC50,70.4 nM
"C[C@@H](O)[C@@H]1NC(=O)[C@H](CCCCN(C)C)NC(=O)[C@@H](Cc2ccc(C(N)=O)cc2)NC(=O)[C@H](Cc2ccc(O)cc2)NC(=O)[C@H](NC(=O)[C@@H](N)Cc2ccc(Cl)cc2)CSSC[C@@H](C(=O)NC(Cc2ccc(O)cc2)C(N)=O)NC1=O (stereo partly drawn) [Compound 32, H-Cpa-cyclo[D-Cys-Tyr-D-Phe(4-carbamoyl)-Lys(N^ε-diMe)-Thr-Cys]-D-Tyr-NH2] (H-[Phe(4-Cl)][dC]Y[dPhe(4-CONH2)][Lys(Me2)]TC[ξY]-NH2; disulfide 2-7)",IC50,2.46 nM
"CC(C)[C@@H]1NC(=O)[C@H](CCCCN)NC(=O)[C@@H](Cc2ccc(C(N)=O)cc2)NC(=O)[C@H](Cc2ccc(O)cc2)NC(=O)[C@H](NC(=O)[C@@H](N)Cc2ccc(Cl)cc2)CSSC[C@@H](C(=O)NC(Cc2ccc(O)cc2)C(N)=O)NC1=O (stereo partly drawn) [Compound 33, H-Cpa-cyclo[DCys- Tyr-D-4- (carbamoyl)Phe-Lys- Val-Cys]-DTyr-NH2] (H-[Phe(4-Cl)][dC]Y[dPhe(4-CONH2)]KVC[ξY]-NH2; disulfide 2-7)",IC50,56 nM
"CC(C)(C)[C@@H]1NC(=O)[C@H](CCCCN)NC(=O)[C@@H](Cc2ccc(C(N)=O)cc2)NC(=O)[C@H](Cc2ccc(O)cc2)NC(=O)[C@H](NC(=O)[C@@H](N)Cc2ccc(Cl)cc2)CSSC[C@@H](C(=O)NC(Cc2ccc(O)cc2)C(N)=O)NC1=O (stereo partly drawn) [Compound 34, H-Cpa-cyclo[DCys- Tyr-D-4- (carbamoyl)Phe-Lys- tBu-Gly-Cys]-DTyr- NH2] (H-[Phe(4-Cl)][dC]Y[dPhe(4-CONH2)]K[Tle]C[ξY]-NH2; disulfide 2-7)",IC50,43.4 nM
"C[C@@H](O)[C@@H]1NC(=O)[C@H](CCCCN)NC(=O)[C@@H](Cc2ccc(C(N)=O)cc2)NC(=O)[C@H](Cc2ccccc2)NC(=O)[C@H](NC(=O)[C@@H](N)Cc2ccc(Cl)cc2)CSSC[C@@H](C(=O)NC(Cc2ccc(O)cc2)C(N)=O)NC1=O (stereo partly drawn) [Compound 35, H-Cpa-cyclo[DCys- Phe-D-(4- carbamoyl)Phe-Lys- Thr-Cys]-DTyr-NH2] (H-[Phe(4-Cl)][dC]F[dPhe(4-CONH2)]KTC[ξY]-NH2; disulfide 2-7)",IC50,35.9 nM
"C[C@@H](O)[C@@H]1NC(=O)[C@H](CCCCN)NC(=O)[C@@H](Cc2ccc(C(N)=O)cc2)NC(=O)[C@H](Cc2ccc(Cl)cc2)NC(=O)[C@H](NC(=O)[C@@H](N)Cc2ccc(Cl)cc2)CSSC[C@@H](C(=O)NC(Cc2ccc(O)cc2)C(N)=O)NC1=O (stereo partly drawn) [Compound 36, H-Cpa-cyclo[DCys- Cpa-D-(4- carbamoyl)Phe-Lys- Thr-Cys]-DTyr-NH2] (H-[Phe(4-Cl)][dC][Phe(4-Cl)][dPhe(4-CONH2)]KTC[ξY]-NH2; disulfide 2-7)",IC50,28.7 nM
"NCCCC[C@@H]1NC(=O)[C@@H](Cc2ccc(C(N)=O)cc2)NC(=O)[C@H](Cc2ccc(O)cc2)NC(=O)[C@H](NC(=O)[C@@H](N)Cc2ccc(Cl)cc2)CSSC[C@@H](C(=O)NC(Cc2ccc(O)cc2)C(N)=O)NC(=O)[C@H](CO)NC1=O (stereo partly drawn) [Compound 37, H-Cpa-cyclo[DCys- Tyr-D-(4- carbamoyl)Phe-Lys- Ser-Cys]-DTyr-NH2] (H-[Phe(4-Cl)][dC]Y[dPhe(4-CONH2)]KSC[ξY]-NH2; disulfide 2-7)",IC50,10.6 nM
"COc1ccc(C[C@@H]2NC(=O)[C@H](NC(=O)[C@@H](N)Cc3ccc(Cl)cc3)CSSC[C@@H](C(=O)NC(Cc3ccc(O)cc3)C(N)=O)NC(=O)[C@H]([C@@H](C)O)NC(=O)[C@H](CCCCN)NC(=O)[C@@H](Cc3ccc(C(N)=O)cc3)NC2=O)cc1 (stereo partly drawn) [Compound 38, H-Cpa-cyclo[DCys- 4-OMe-Phe-D-(4- carbamoyl)Phe-Lys- Thr-Cys]-DTyr-NH2] (H-[Phe(4-Cl)][dC]Y(Me)[dPhe(4-CONH2)]KTC[ξY]-NH2; disulfide 2-7)",IC50,24.4 nM
"C[C@@H](O)[C@@H]1NC(=O)[C@H](CCCCN)NC(=O)[C@@H](Cc2ccc(C(N)=O)cc2)NC(=O)[C@H](Cc2ccc(O)cc2)NC(=O)[C@H](NC(=O)[C@@H](N)Cc2ccc(Cl)cc2)CSSC[C@@H](C(=O)NC(Cc2ccccc2)C(N)=O)NC1=O (stereo partly drawn) [Compound 40, H-Cpa-cyclo[DCys- Tyr-D-(4- carbamoyl)Phe-Lys- Thr-Cys]-DPhe-NH2] (H-[Phe(4-Cl)][dC]Y[dPhe(4-CONH2)]KTC[ξF]-NH2; disulfide 2-7)",IC50,16.2 nM
"C[C@@H](O)[C@@H]1NC(=O)[C@H](CCCCN)NC(=O)[C@@H](Cc2ccc(C(N)=O)cc2)NC(=O)[C@H](Cc2ccccc2)NC(=O)[C@H](NC(=O)[C@@H](N)Cc2ccc(Cl)cc2)CSSC[C@@H](C(=O)NC(Cc2ccccc2)C(N)=O)NC1=O (stereo partly drawn) [Compound 41, H-Cpa-cyclo[DCys- Phe-D-(4- carbamoyl)Phe-Lys- Thr-Cys]-DPhe-NH2] (H-[Phe(4-Cl)][dC]F[dPhe(4-CONH2)]KTC[ξF]-NH2; disulfide 2-7)",IC50,24.4 nM
